For this test, the target named is T1, human GPBAR1 receptor (Homo sapiens, UniProt Q8TDU6).
T1 construct: expressed in transfected cells
T1 sequence (Q8TDU6 1-330): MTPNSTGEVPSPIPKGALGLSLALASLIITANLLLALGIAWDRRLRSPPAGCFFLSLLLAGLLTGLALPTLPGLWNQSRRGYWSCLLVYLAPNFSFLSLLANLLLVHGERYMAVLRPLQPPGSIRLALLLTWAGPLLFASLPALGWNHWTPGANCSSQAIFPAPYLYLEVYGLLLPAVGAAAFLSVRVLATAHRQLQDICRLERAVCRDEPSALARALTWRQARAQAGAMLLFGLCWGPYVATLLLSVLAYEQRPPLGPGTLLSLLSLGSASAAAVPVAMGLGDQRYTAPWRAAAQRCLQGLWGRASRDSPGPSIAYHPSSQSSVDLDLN
The test can be described thus: functional cAMP assay in CHO-dhfr(minus) cells expressing human GPBAR1 receptors. The class given is cell-based. Particulars: cAMP increase (TR-FRET) in CHO-dhfr(minus) cells expressing human GPBAR1; compounds incubated 30 min at 30° C. Here is the method:
The final clone was verified by DNA sequence analysis. The plasmid was transfected into CHO cells deficient in dihydrofolate reductase activity (CHO-dhfr−) using Lipofectamine plus (Invitrogen). Clones were isolated in limited dilution conditions and identified by activities in the cAMP assay using lithocholic acid as agonist.
The growth medium was exchanged with Krebs Ringer Bicarbonate buffer with 1 mM IBMX and incubated at 30° C. for 30 min. Compounds were added to a final assay volume of 100 μl and incubated for 30 min at 30° C. […] The time-resolved energy transfer is measured by a TRF reader (Evotec Technologies GmbH, Hamburg Germany), equipped with a ND:YAG laser as excitation source.
EC50 values were determined using Activity Base analysis (ID Business Solution, Limited). […] Specificity for GPBAR1 was tested in non-transfected CHO cells in the same assay as above.
A general note: Cyclic AMP is a second messenger, typically raised through Gs and lowered through Gi signalling.

`COC(=O)CNC(=O)c1cc(Cl)c(Oc2cc(C)ncc2C(=O)N2CCN(C3CC3)c3ccccc32)cc1Cl` [Example 69, {2,5-Dichloro-4-[5-(4-cyclopropyl-3,4-dihydro-2H-quinoxaline-1-carbonyl)-2-methyl-pyridin-4-yloxy]-benzoylamino}-acetic acid methyl ester] came in with an EC50 of 40 nM. In the case of `Cc1cc(Oc2cc(Cl)c(C(=O)NCc3nnn[nH]3)cc2Cl)c(C(=O)N2CCN(C3CC3)c3ccccc32)cn1` [Example 72, 2,5-Dichloro-4-[5-(4-cyclopropyl-3,4-dihydro-2H-quinoxaline-1-carbonyl)-2-methyl-pyridin-4-yloxy]-N-(1H-tetrazol-5-ylmethyl)-benzamide] it was 400 nM; in that of `O=C(c1cnccc1Oc1cc(Cl)ccc1Cl)N1CCCc2cc(F)c(F)cc21` [Example 2, [4-(2,5-Dichloro-phenoxy)-pyridin-3-yl]-(6,7-difluoro-3,4-dihydro-2H-quinolin-1-yl)-methanone], 100 nM; in that of `NC(=O)CCNC(=O)c1cc(Cl)c(Oc2ccncc2C(=O)N2CCN(C3CC3)c3ccccc32)cc1Cl` [Example 53, N-(2-Carbamoyl-ethyl)-2,5-dichloro-4-[3-(4-cyclopropyl-3,4-dihydro-2H-quinoxaline-1-carbonyl)-pyridin-4-yloxy]-benzamide], 100 nM. In turn, `Cc1cc(Oc2cc(Cl)c(C(=O)Nc3nnn[nH]3)cc2Cl)c(C(=O)N2CCN(C3CC3)c3ccccc32)cn1` [Example 71, 2,5-Dichloro-4-[5-(4-cyclopropyl-3,4-dihydro-2H-quinoxaline-1-carbonyl)-2-methyl-pyridin-4-yloxy]-N-(1H-tetrazol-5-yl)-benzamide] returned an EC50 of 100 nM.

Turning to `COc1ncccc1N(C)C(=O)c1cncnc1Oc1cc(Cl)ccc1Cl` [Example 80, 4-(2,5-Dichloro-phenoxy)-pyrimidine-5-carboxylic acid (2-methoxy-pyridin-3-yl)-methyl-amide], the response was half-maximal at 90 nM (EC50).

The compound `Cc1cc(Oc2cc(Cl)ccc2Cl)c(C(=O)N2CCN(C3CC3)c3ccccc32)cn1` [Example 63, (4-Cyclopropyl-3,4-dihydro-2H-quinoxalin-1-yl)-[4-(2,5-dichloro-phenoxy)-6-methyl-pyridin-3-yl]-methanone] displayed an EC50 of 1 nM. In the case of `O=C(NCCCS(=O)(=O)O)c1cc(Cl)c(Oc2ccncc2C(=O)N2CCN(C3CC3)c3ccccc32)cc1Cl` [Example 37, 3-{2,5-Dichloro-4-[3-(4-cyclopropyl-3,4-dihydro-2H-quinoxaline-1-carbonyl)-pyridin-4-yloxy]-benzoylamino}-propane-1-sulfonic acid] it was 900 nM. The value for `COc1ccccc1N(C)C(=O)c1cnccc1Oc1cc(Cl)ccc1Cl` [Example 14, 4-(2,5-Dichloro-phenoxy)-N-(2-methoxy-phenyl)-N-methyl-nicotinamide] was 100 nM; that for `Cc1ccccc1N(C)C(=O)c1cnccc1Oc1cc(Cl)ccc1Cl` [Example 13, 4-(2,5-Dichloro-phenoxy)-N-methyl-N-o-tolyl-nicotinamide] was 200 nM; that for `O=C(NCCS(=O)(=O)O)c1cc(Cl)c(Oc2ccncc2C(=O)N2CCN(C3CC3)c3ccccc32)cc1Cl` [Example 35, 2-{2,5-Dichloro-4-[3-(4-cyclopropyl-3,4-dihydro-2H-quinoxaline-1-carbonyl)-pyridin-4-yloxy]-benzoylamino}-ethanesulfonic acid] was 100 nM.

The compound `CNc1cc(F)c(F)cc1N(C)C(=O)c1cnccc1Oc1cc(Cl)ccc1Cl` [Example 21, 4-(2,5-Dichloro-phenoxy)-N-(4,5-difluoro-2-methylamino-phenyl)-N-methyl-nicotinamide] yielded an EC50 of 400 nM.

`CN(C(=O)c1cnccc1Oc1cc(Cl)ccc1Cl)c1ccccc1N1CCCCC1` [Example 17, 4-(2,5-Dichloro-phenoxy)-N-methyl-N-(2-piperidin-1-yl-phenyl)-nicotinamide] returned an EC50 of 1900 nM. As to `CN(CC(=O)O)C(=O)c1cc(Cl)c(Oc2ccncc2C(=O)N2CCN(C3CC3)c3ccccc32)cc1Cl` [Example 32, ({2,5-Dichloro-4-[3-(4-cyclopropyl-3,4-dihydro-2H-quinoxaline-1-carbonyl)-pyridin-4-yloxy]-benzoyl}-methyl-amino)-acetic acid], it took 900 nM to reach a half-maximal effect (EC50). Compound `O=C(O)COc1cc(Cl)c(Oc2ccncc2C(=O)N2CCN(C3CC3)c3ccccc32)cc1Cl` [Example 59, {2,5-Dichloro-4-[3-(4-cyclopropyl-3,4-dihydro-2H-quinoxaline-1-carbonyl)-pyridin-4-yloxy]-phenoxy}-acetic acid] came in with an EC50 of 500 nM.

Consider `CN(C)c1ccc(Cl)cc1N(C)C(=O)c1cnccc1Oc1cc(Cl)ccc1Cl` [Example 20, N-(5-Chloro-2-dimethylamino-phenyl)-4-(2,5-dichloro-phenoxy)-N-methyl-nicotinamide], for which a half-maximal response (EC50) required 400 nM. As for `O=C(O)CCCNC(=O)c1cc(Cl)c(Oc2ccncc2C(=O)N2CCN(C3CC3)c3ccccc32)cc1Cl` [Example 40, 4-{2,5-Dichloro-4-[3-(4-cyclopropyl-3,4-dihydro-2H-quinoxaline-1-carbonyl)-pyridin-4-yloxy]-benzoylamino}-butyric acid], a half-maximal response (EC50) required 200 nM. In the case of `O=C(Nc1nnn[nH]1)c1cc(Cl)c(Oc2ccncc2C(=O)N2CCN(C3CC3)c3ccccc32)cc1Cl` [Example 38, 2,5-Dichloro-4-[3-(4-cyclopropyl-3,4-dihydro-2H-quinoxaline-1-carbonyl)-pyridin-4-yloxy]-N-(1H-tetrazol-5-yl)-benzamide] it was 40 nM; in that of `CCOC(=O)C(C)(C)Oc1cc(Cl)c(Oc2ccncc2C(=O)N2CCN(C3CC3)c3ccccc32)cc1Cl` [Example 60, 2-{2,5-Dichloro-4-[3-(4-cyclopropyl-3,4-dihydro-2H-quinoxaline-1-carbonyl)-pyridin-4-yloxy]-phenoxy}-2-methyl-propionic acid ethyl ester], 200 nM; in that of `COC(=O)CCC(CCC(=O)OC)NC(=O)c1cc(Cl)c(Oc2ccncc2C(=O)N2CCN(C3CC3)c3ccccc32)cc1Cl` [Example 54, 4-{2,5-Dichloro-4-[3-(4-cyclopropyl-3,4-dihydro-2H-quinoxaline-1-carbonyl)-pyridin-4-yloxy]-benzoylamino}-heptanedioic acid dimethyl ester], 300 nM. On to `O=C(c1cncnc1Oc1cc(Cl)ccc1Cl)N1CCCc2cc(F)ccc21` [Example 77, [4-(2,5-Dichloro-phenoxy)-pyrimidin-5-yl]-(6-fluoro-3,4-dihydro-2H-quinolin-1-yl)-methanone], for which the EC50 was 400 nM.

With `O=C(c1cnccc1Oc1cc(Cl)c(OCCO)cc1Cl)N1CCN(C2CC2)c2ccccc21` [Example 62, (4-Cyclopropyl-3,4-dihydro-2H-quinoxalin-1-yl)-{4-[2,5-dichloro-4-(2-hydroxy-ethoxy)-phenoxy]-pyridin-3-yl}-methanone], it took 12 nM to reach a half-maximal effect (EC50). `O=C(c1cnccc1Oc1cc(Cl)c(Br)cc1Cl)N1CCN(C2CC2)c2ccccc21` [Example 26, [4-(4-Bromo-2,5-dichloro-phenoxy)-pyridin-3-yl]-(4-cyclopropyl-3,4-dihydro-2H-quinoxalin-1-yl)-methanone] displayed an EC50 of 4 nM. In turn, `CC(C)(Oc1cc(Cl)c(Oc2ccncc2C(=O)N2CCN(C3CC3)c3ccccc32)cc1Cl)C(=O)O` [Example 61, 2-{2,5-Dichloro-4-[3-(4-cyclopropyl-3,4-dihydro-2H-quinoxaline-1-carbonyl)-pyridin-4-yloxy]-phenoxy}-2-methyl-propionic acid] yielded a concentration for a half-maximal effect (EC50) of 400 nM. Take `COC(=O)CNC(=O)c1cc(Cl)c(Oc2ccncc2C(=O)N2CCN(C3CC3)c3ccccc32)cc1Cl` [Example 29, {2,5-Dichloro-4-[3-(4-cyclopropyl-3,4-dihydro-2H-quinoxaline-1-carbonyl)-pyridin-4-yloxy]-benzoylamino}-acetic acid methyl ester]: the EC50 stood at 100 nM.

On to `Cc1cc(Oc2cc(Cl)c(C(=O)NCC(=O)O)cc2Cl)c(C(=O)N2CCN(C3CC3)c3ccccc32)cn1` [Example 70, {2,5-Dichloro-4-[5-(4-cyclopropyl-3,4-dihydro-2H-quinoxaline-1-carbonyl)-2-methyl-pyridin-4-yloxy]-benzoylamino}-acetic acid], for which the half-maximal effective concentration (EC50) was 400 nM. Compound `N#Cc1cc(Cl)c(Oc2ccncc2C(=O)N2CCN(C3CC3)c3ccccc32)cc1Cl` [Example 56, 2,5-Dichloro-4-[3-(4-cyclopropyl-3,4-dihydro-2H-quinoxaline-1-carbonyl)-pyridin-4-yloxy]-benzonitrile] yielded a concentration giving a half-maximal response (EC50) of 3 nM. Turning to `O=C(c1c[n+]([O-])ccc1Oc1cc(Cl)ccc1Cl)N1CCCc2ccccc21` [Example 10, [4-(2,5-Dichloro-phenoxy)-1-oxy-pyridin-3-yl]-(3,4-dihydro-2H-quinolin-1-yl)-methanone], the midpoint of the response, the EC50, lay at 700 nM. `COc1ccc(F)cc1N(C)C(=O)c1cnccc1Oc1cc(Cl)ccc1Cl` [Example 12, 4-(2,5-Dichloro-phenoxy)-N-(5-fluoro-2-methoxy-phenyl)-N-methyl-nicotinamide] had an EC50 of 100 nM.

The EC50 is the concentration giving half of the maximal effect.

For the origin of these results see patent publication US8729091B2, “4-phenoxy-nicotinamide or 4-phenoxy-pyrimidine-5-carboxamide compounds” (Hoffmann-La Roche Inc., priority 2010, dated 2014).
